The source of these data is patent US9423343B2, “Membrane potential change detection device and membrane potential change detection method” (HAMAMATSU PHOTONICS K.K., priority 2010, dated 2016).

The test relates to CHO cells. Briefly: Reflection interference measurement of membrane potential change (depolarization) after KCl dispensation, Measurement Example 1. In kind it is cell-based, Chinese hamster. Particulars: for change rate of average luminosity at the peak: peak slightly over five minutes, FIG. 11. The text has this: The functions and operation of the processing unit 20 will be described further referring to the flowchart of FIG. 7. First, the reflection interference image of adhesion faces of cells 101 is obtained by the reflection interference detection camera 110 (step S101, corresponding to “reflection interference imaging step” in the scope of claims). The amplitude of interfering light differs according to the distance of each cell 101 adhering onto the substrate as the bottom surface of the vessel 102 from the substrate as the bottom surface of the vessel 102, and the reflection interference image is taken as a contrast of bright and dark patterns. Next, correction is made for shading of reflected light in the field of the reflection interference image. In addition, an offset correction for background part is carried out in each time unit, so as to prevent temporal variation in value of the background without the cells 101. Through these image arithmetic corrections, we can obtain the reflection interference image with little spatial and temporal variation.
The reflection interference detection camera 110 acquires reflection interference images, for example, at intervals of one second. The intervals of acquisition of reflection interference images are preferably suitably controlled according to a rate of change of membrane potential of the cells 101. After a fixed time from a start of acquisition of image by the reflection interference detection camera 110, a chemical dispensing operation of the dispenser 117 is performed to dispense an intended chemical in an intended concentration to the solution in which the cells 101 are immersed.
The analysis unit 202 calculates a parameter about adhesion between each cell 101 and the transparent member 102a using the reflection interference images obtained intermittently in this manner (step S102, corresponding to “analysis step” in the scope of claims). In the present embodiment, the analysis unit calculates a “change rate of average luminosity” as the parameter to evaluate the change of membrane potential of cell 101 (corresponding to “parameter about adhesion” in the scope of claims).
When the image reception unit 201 receives the reflection interference images sequentially output from the reflection interference detection camera 110, the analysis unit 202 calculates the average luminosity I(t) of the measurement region in each of the reflection interference images and calculates a change rate dI relative to an average luminosity of the measurement region acquired in advance before chemical dispensation (which will be referred to hereinafter as average luminosity I(base) as a base”) (step S103, corresponding to “analysis step” in the scope of claims). […] The change rate dI is calculated by the formula below. […]
The analysis unit 202 detects a change of membrane potential of the cells 101 on the basis of the change rate dI calculated by the above formula. Namely, when a predetermined change rate dI is calculated, the analysis unit 202 makes such a valuation that there is some change detected in membrane potential in the cells 101. The analysis unit 202 may output a plot along time axis of the change rate dI (%) relative to the average luminosity before chemical dispensation calculated by the above formula, e.g., graphs as shown in (A) of FIGS. 8 and (B) of FIG. 8. […]

Consider `[Cl-].[K+]` [KCl, potassium chloride], for which the “change rate of average luminosity at the peak” value by setting is: (KCl concentration 6.25 mM) “+8%”; (KCl concentration 25 mM) “+35%”; (KCl concentration 50 mM) “+55%”; (KCl concentration 100 mM) “+95%”. The “change of reflection interference image after dispensation” value (image at 5 minutes after dispensation, FIG. 9) is “the CHO cells departed from the transparent member on which the cells were laid, to make the reflection interference image brighter”.
